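Five compound concentrations were applied to cells in 96-well plates for 48 hours; endpoints were derived by simple linear interpolation of the resulting dose-response curve. At the GI50, growth is halved.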 Active and inactive are the calls of the source. Cut-off read from the data, not from the text of the source: active = GI50 up to about 1.1 µM and inactive = higher.
Experiments:
Assay in all cases: NCI anticancer screen, dose series, 48 h
SW-620 = test system: SW-620
EKVX = test system: EKVX
OVCAR-8 = test system: OVCAR-8
M19-MEL = test system: M19-MEL
RPMI-8226 = test system: RPMI-8226
HOP-18 = test system: HOP-18
NCI-H226 = test system: NCI-H226
MOLT-4 = test system: MOLT-4
SR = test system: SR
HCT-116 = test system: HCT-116
XF498 = test system: XF498
CAKI-1 = test system: CAKI-1
M14 = test system: M14
SK-MEL-5 = test system: SK-MEL-5
NCI-H460 = test system: NCI-H460
OVCAR-5 = test system: OVCAR-5
UACC-62 = test system: UACC-62
SK-MEL-28 = test system: SK-MEL-28
HT-29 = test system: HT-29
A498 = test system: A498
NCI-H23 = test system: NCI-H23
DLD-1 = test system: DLD-1
RXF 631 = test system: RXF 631
HCC 2998 = test system: HCC 2998
Malme-3M = test system: Malme-3M
HOP-92 = test system: HOP-92
K562 = test system: K562
SF-295 = test system: SF-295
HOP-62 = test system: HOP-62
DMS-114 = test system: DMS-114
UO-31 = test system: UO-31
ACHN = test system: ACHN
LOX IMVI = test system: LOX IMVI
CCRF-CEM = test system: CCRF-CEM
KM12 = test system: KM12
SNB-19 = test system: SNB-19
HCT-15 = test system: HCT-15
SF-539 = test system: SF-539
OVCAR-4 = test system: OVCAR-4
DMS-273 = test system: DMS-273
OVCAR-3 = test system: OVCAR-3
SNB-75 = test system: SNB-75
SF-268 = test system: SF-268
HL-60 = test system: HL-60
IGROV-1 = test system: IGROV-1
SNB-78 = test system: SNB-78
LXFL 529 = test system: LXFL 529
A549 = test system: A549
SK-MEL-2 = test system: SK-MEL-2
UACC-257 = test system: UACC-257
SN12C = test system: SN12C
TK-10 = test system: TK-10
RXF 393 = test system: RXF 393
786-0 = test system: 786-0
KM-20L2 = test system: KM-20L2

CC(C)=C1CCC(CN2CCCC2)C1=O (stereo not given)
GI50 (SW-620): 22.1 µM (inactive)
GI50 (EKVX): > 100 µM (inactive)
GI50 (OVCAR-8): > 100 µM (inactive)
GI50 (M19-MEL): 20.6 µM (inactive)
GI50 (RPMI-8226): 11.8 µM (inactive)
GI50 (HOP-18): 17.5 µM (inactive)
GI50 (NCI-H226): > 100 µM (inactive)
GI50 (MOLT-4): 21.9 µM (inactive)
GI50 (SR): 15.8 µM (inactive)
GI50 (HCT-116): 17.7 µM (inactive)
GI50 (XF498): 19.1 µM (inactive)
GI50 (CAKI-1): 13.7 µM (inactive)
GI50 (M14): 19.2 µM (inactive)
GI50 (SK-MEL-5): > 100 µM (inactive)
GI50 (NCI-H460): 58.7 µM (inactive)
GI50 (OVCAR-5): 94.6 µM (inactive)
GI50 (UACC-62): > 100 µM (inactive)
GI50 (SK-MEL-28): 26.7 µM (inactive)
GI50 (HT-29): 22.8 µM (inactive)
GI50 (A498): > 100 µM (inactive)
GI50 (NCI-H23): > 100 µM (inactive)
GI50 (DLD-1): 17.3 µM (inactive)
GI50 (RXF 631): > 100 µM (inactive)
GI50 (HCC 2998): 20.3 µM (inactive)
GI50 (Malme-3M): 21.4 µM (inactive)
GI50 (HOP-92): 24.6 µM (inactive)
GI50 (K562): 21.8 µM (inactive)
GI50 (SF-295): > 100 µM (inactive)
GI50 (HOP-62): > 100 µM (inactive)
GI50 (DMS-114): 20.4 µM (inactive)
GI50 (UO-31): 20.8 µM (inactive)
GI50 (ACHN): 18.6 µM (inactive)
GI50 (LOX IMVI): > 100 µM (inactive)
GI50 (CCRF-CEM): 17.7 µM (inactive)
GI50 (KM12): 30.2 µM (inactive)
GI50 (SNB-19): > 100 µM (inactive)
GI50 (HCT-15): 18.5 µM
GI50 (SF-539): 53.7 µM (inactive)
GI50 (OVCAR-4): 17.1 µM (inactive)
GI50 (DMS-273): 39.4 µM (inactive)
GI50 (OVCAR-3): 17.4 µM (inactive)
GI50 (SNB-75): 55.2 µM (inactive)
GI50 (SF-268): 33.8 µM (inactive)
GI50 (HL-60): 19.7 µM (inactive)
GI50 (IGROV-1): 75.2 µM (inactive)
GI50 (SNB-78): > 100 µM (inactive)
GI50 (LXFL 529): 18 µM (inactive)
GI50 (A549): > 100 µM (inactive)
GI50 (SK-MEL-2): 29.6 µM (inactive)
GI50 (UACC-257): 24.7 µM (inactive)
GI50 (SN12C): 17.6 µM (inactive)
GI50 (TK-10): 27.5 µM (inactive)
GI50 (RXF 393): 21.4 µM (inactive)
GI50 (786-0): 16.9 µM (inactive)
GI50 (KM-20L2): 89.7 µM (inactive)
